Measured values from the NIST ThermoML archive (doi:10.1016/j.fluid.2004.09.013).

Conditions: for mass density: Fluid (supercritical or subcritical phases), Vibrating tube method; for vapor or sublimation pressure: Liquid

C=C(C)C [2-methylpropene]
Conditions	mass density [kg/m3]
328.22 K, 14997 kPa	579.49
328.22 K, 19998 kPa	587.62
328.22 K, 24989 kPa	594.87
328.22 K, 29993 kPa	601.47
328.22 K, 35002 kPa	607.53
333.22 K, 1303 kPa	542.34
333.22 K, 4983 kPa	552.65
333.22 K, 9997 kPa	564.28
333.22 K, 15001 kPa	574.03
333.22 K, 19998 kPa	582.51
333.22 K, 25001 kPa	590.09
333.22 K, 30012 kPa	596.94
333.22 K, 34994 kPa	603.17
338.22 K, 1401 kPa	534.97
338.22 K, 4983 kPa	545.83
338.22 K, 9985 kPa	558.2
338.22 K, 14988 kPa	568.49
338.22 K, 20002 kPa	577.4
338.22 K, 24995 kPa	585.25
338.22 K, 30004 kPa	592.35
338.22 K, 34989 kPa	598.79
338.23 K, 39972 kPa	604.69
343.22 K, 1507 kPa	527.38
343.22 K, 4990 kPa	538.84
343.22 K, 14984 kPa	562.89
343.22 K, 19992 kPa	572.21
343.22 K, 24986 kPa	580.39
343.23 K, 10002 kPa	552.06
343.23 K, 29994 kPa	587.74
343.23 K, 35010 kPa	594.44
348.23 K, 1624 kPa	519.55
348.23 K, 4982 kPa	531.6
348.23 K, 9996 kPa	545.8
348.23 K, 15003 kPa	557.28
348.23 K, 19988 kPa	566.99
348.23 K, 24994 kPa	575.52
348.23 K, 29995 kPa	583.14
348.23 K, 34998 kPa	590.02
353.23 K, 1750 kPa	511.45
353.23 K, 4999 kPa	524.22
353.23 K, 9995 kPa	539.41
353.23 K, 15002 kPa	551.55
353.23 K, 19988 kPa	561.74
353.23 K, 24993 kPa	570.61
353.23 K, 29992 kPa	578.51
353.23 K, 35002 kPa	585.65
358.23 K, 1880 kPa	503.02
358.23 K, 4995 kPa	516.51
358.23 K, 9992 kPa	532.9
358.23 K, 14994 kPa	545.74
358.23 K, 19987 kPa	556.44
358.23 K, 25000 kPa	565.71
358.23 K, 29992 kPa	573.87
358.23 K, 34986 kPa	581.23
363.23 K, 2029 kPa	494.29
363.23 K, 4995 kPa	508.53
363.23 K, 9990 kPa	526.24
363.23 K, 14992 kPa	539.87
363.23 K, 19984 kPa	551.08
363.23 K, 25007 kPa	560.75
363.23 K, 29987 kPa	569.21
363.23 K, 34996 kPa	576.84
368.23 K, 2186 kPa	485.16
368.23 K, 4992 kPa	500.2
368.23 K, 9984 kPa	519.43
368.23 K, 14990 kPa	533.92
368.23 K, 29990 kPa	564.54
368.24 K, 19992 kPa	545.7
368.24 K, 25001 kPa	555.77
368.24 K, 35000 kPa	572.42
373.23 K, 2351 kPa	475.57
373.23 K, 29996 kPa	559.86
373.23 K, 34996 kPa	567.99
373.24 K, 4995 kPa	491.52
373.24 K, 9984 kPa	512.47
373.24 K, 14991 kPa	527.88
373.24 K, 19998 kPa	540.27
373.24 K, 25004 kPa	550.75
373.24 K, 39995 kPa	575.36
378.24 K, 2531 kPa	465.5
378.24 K, 4999 kPa	482.41
378.24 K, 9996 kPa	505.39
378.24 K, 14983 kPa	521.73
378.24 K, 19996 kPa	534.78
378.24 K, 25004 kPa	545.72
378.24 K, 29995 kPa	555.17
378.24 K, 34988 kPa	563.54
383.24 K, 2689 kPa	454.37
383.24 K, 4984 kPa	472.67
383.24 K, 9995 kPa	498.07
383.24 K, 14986 kPa	515.53
383.24 K, 20004 kPa	529.26
383.24 K, 25006 kPa	540.65
383.24 K, 29986 kPa	550.43
383.24 K, 34992 kPa	559.1
388.24 K, 2901 kPa	443.01
388.24 K, 4994 kPa	462.48
388.24 K, 9997 kPa	490.56

Conditions	vapor or sublimation pressure [kPa]
328.93 K	704.67
337.82 K	871.92
348.26 K	1100.8
357.33 K	1343.9
364.25 K	1545.1
371.52 K	1784.7
380.19 K	2094.5
386.12 K	2332.7
